Results as given in patent US20130204033A1, “ANTIPROLIFERATIVE COMPOUNDS, CONJUGATES THEREOF, METHODS THEREFOR, AND USES THEREOF” (Medarex, Inc., priority 2009, published 2013).
Where two headings read alike, the source gives them in different places.

Columns and labels:
Type in all cases: cell-based, human
Raji = test: ATP luminescence proliferation assay, Raji
Description: (§1) This example generally describes the procedures used to assay the antiproliferative activity of compounds of this invention or their conjugates. Human tumor cell lines were obtained from the American Type Culture Collection (ATCC), P.O. Box 1549, Manassas, Va. 20108, USA, and cultured according to instruction from the ATCC. Cells were seeded at 1.0×10^3 or 1.0×10^4 cells/well in 96-well plates for 3 h for ATP assays or ^3H thymidine assays, respectively. 1:3 serial dilutions of free (unconjugated) compounds or their conjugates were added to the wells. Plates were allowed to incubate for 24 to 72 h. The ^3H thymidine plates were pulsed with 1.0 μCi of ^3H-thymidine per well for the last 24 hours of the total incubation period, harvested, and read on a Top Count Scintillation Counter (Packard Instruments, Meriden, Conn.). ATP levels in the ATP plates were measured using the […]-GLO® Luminescent Cell Viability kit following the manufacturer's manual and read on a GLOMAX® 20/20 luminometer (both from Promega, Madison, Wis., USA). The EC50 values—the concentration at which an agent inhibits or reduces cell proliferation by 50% —were determined using PRISM™ software, version 4.0 (GraphPad Software, La Jolla, Calif., USA).
(§2) Using the ^3H thymidine or the ATP luminescence assay, or both, the activities of compounds of this invention were assayed against the following cancer cell lines: HCT-15 (colorectal cancer, multi-drug resistant (MDR)); Hep3B (liver cancer); LNCaP (prostate cancer, androgen receptor positive (AR^+)); MDA-MB-231 (breast cancer, estrogen receptor, progesterone receptor, and Her2 negative (triple negative)); A2058 (melanoma); U-87 MG (glioblastoma); NCI-H460 (NSCLC); A549 (NSCLC); HPAC (pancreatic cancer, primary); PC3 (prostate cancer, AR); BT474 (breast cancer, Her2 highly positive (Her2hi)); SKOV3 (ovarian cancer, Her2hi); 786-O (renal cancer); UO-31 (renal cancer, MDR); NCI-H740 (SCLC); DMS53 (SCLC); SK-BR3 (breast cancer, Her2hi); ZR-75 (breast cancer, estrogen receptor positive); OVCAR3 (ovarian cancer); HL-60 (APL); OVCAR8/Adr (ovarian cancer, MDR); CEM-Cl (ALL); Nomo-1 (AML); RPMI-8226 (MM)); Raji (lymphoma); SW-480 (colorectal cancer, metastatic); SW-620 (colorectal cancer); and H226 (lung cancer). (Not all compounds were assayed against all cell lines.)
(§3) Table 3 provides the data for the ATP luminescence proliferation assays, with an incubation period of 48, 72, or 96 h, as noted.

A2058 = test: 3H thymidine proliferation assay, A2058; conditions: 3H thymidine method, 72 h incubation
Description: as §1, §2
(§4) Table 2 provides the data for proliferation assays using the ^3H thymidine method, with an incubation period of 72 h.

A549 [1] = test: 3H thymidine proliferation assay, A549
Description: as §1, §2, §4

OVCAR8 = test: 3H thymidine proliferation assay, OVCAR8
Description: as §1, §2, §4

ZR-75 = test: 3H thymidine proliferation assay, ZR-75
Description: as §1, §2, §4

PC3 = test: ATP luminescence proliferation assay, PC3
Description: as §1, §2, §3

Hep3B = test: ATP luminescence proliferation assay, Hep3B
Description: as §1, §2, §3

U-87 MG = test: 3H thymidine proliferation assay, U-87 MG
Description: as §1, §2, §4

SKOV3 [2] = test: 3H thymidine proliferation assay, SKOV3
Description: as §1, §2, §4

LNCaP = test: ATP luminescence proliferation assay, LNCaP
Description: as §1, §2, §3

NCI-H460 = test: 3H thymidine proliferation assay, NCI-H460
Description: as §1, §2, §4

BT474 = test: 3H thymidine proliferation assay, BT474
Description: as §1, §2, §4

SKOV3 [3] = test: ATP luminescence proliferation assay, SKOV3
Description: as §1, §2, §3

A549 [4] = test: ATP luminescence proliferation assay, A549
Description: as §1, §2, §3

[5] = Homo sapiens, 72 h, read-out: EC50 Raji (72 h), ATP luminescence, Raji, 72 h incubation
[6] = Homo sapiens, A549, read-out: EC50, A549, 3H thymidine method, 72 h incubation
[7] = Homo sapiens, OVCAR-8, read-out: EC50, OVCAR8, 3H thymidine method, 72 h incubation
[8] = Homo sapiens, ZR75, read-out: EC50, ZR-75, 3H thymidine method, 72 h incubation
[9] = Homo sapiens, PC-3, 48 h, read-out: EC50 PC3 (48 h), ATP luminescence, PC3, 48 h incubation
[10] = Homo sapiens, 48 h, read-out: EC50 Hep3B (48 h), ATP luminescence, Hep3B, 48 h incubation
[11] = Homo sapiens, U-87 MG, read-out: EC50, U-87 MG, 3H thymidine method, 72 h incubation
[12] = Homo sapiens, SK-OV-3, read-out: EC50, SKOV3, 3H thymidine method, 72 h incubation
[13] = Homo sapiens, 72 h, read-out: EC50 LNCaP (72 h), ATP luminescence, LNCaP, 72 h incubation
[14] = Homo sapiens, NCI-H460, read-out: EC50, NCI-H460, 3H thymidine method, 72 h incubation
[15] = Homo sapiens, BT-474, read-out: EC50, BT474, 3H thymidine method, 72 h incubation
[16] = Homo sapiens, SK-OV-3, 72 h, read-out: EC50 SKOV3 (72 h), ATP luminescence, SKOV3, 72 h incubation
[17] = ATP luminescence, 72 h incubation, read-out: EC50 Raji (72 h)
[18] = 3H thymidine method, 72 h incubation, read-out: EC50, A549
[19] = 3H thymidine method, 72 h incubation, read-out: EC50, OVCAR8
[20] = 3H thymidine method, 72 h incubation, read-out: EC50, ZR-75
[21] = ATP luminescence, PC3, 48 h incubation, read-out: EC50 PC3 (48 h)
[22] = ATP luminescence, 48 h incubation, read-out: EC50 Hep3B (48 h)
[23] = 3H thymidine method, 72 h incubation, read-out: EC50, U-87 MG
[24] = 3H thymidine method, 72 h incubation, read-out: EC50, SKOV3
[25] = 3H thymidine method, 72 h incubation, read-out: EC50, NCI-H460
[26] = 3H thymidine method, 72 h incubation, read-out: EC50, BT474
[27] = ATP luminescence, SKOV3, 72 h incubation, read-out: EC50 SKOV3 (72 h)
[28] = Homo sapiens, A549, 48 h, read-out: EC50 A549 (48 h), ATP luminescence, A549, 48 h incubation

| SMILES | EC50 (Raji; [5]) [nM] | EC50 (A2058; Homo sapiens, A2058) [nM] | EC50 (A549 [1]; [6]) [nM] | EC50 (OVCAR8; [7]) [nM] | EC50 (ZR-75; [8]) [nM] | EC50 (PC3; [9]) [nM] | EC50 (Hep3B; [10]) [nM] | EC50 (U-87 MG; [11]) [nM] | EC50 (SKOV3 [2]; [12]) [nM] | EC50 (LNCaP; [13]) [nM] | EC50 (NCI-H460; [14]) [nM] | EC50 (BT474; [15]) [nM] | EC50 (SKOV3 [3]; [16]) [nM] | EC50 (Raji; [17]) [nM] | EC50 (A2058) [nM] | EC50 (A549 [1]; [18]) [nM] | EC50 (OVCAR8; [19]) [nM] | EC50 (ZR-75; [20]) [nM] | EC50 (PC3; [21]) [nM] | EC50 (Hep3B; [22]) [nM] | also measured |
| --- | --- | --- | --- | --- | --- | --- | --- | --- | --- | --- | --- | --- | --- | --- | --- | --- | --- | --- | --- | --- | --- |
| CC[C@H](C)[C@H](NC(=O)[C@H]1CCCCN1C)C(=O)N(C)[C@H](C[C@@H](OC)c1nc(C(=O)N[C@H](CCC(=O)OC)Cc2ccccc2)cs1)C(C)C [Compound 26] | 46 | 25 | 18 | 201 | > 300 | > 3000 | 100 | 5.2 | 4.6 | 412 | 18 | 11 | 38 | – | – | – | – | – | – | – | – |
| CC[C@H](C)[C@H](NC(=O)[C@H]1CCCCN1C)C(=O)N(COC(=O)CC(C)C)[C@H](C[C@@H](OC(C)=O)c1nc(C(=O)N[C@@H](Cc2ccccc2)C(=O)OC)cs1)C(C)C [Compound 29] | – | – | – | – | – | – | – | – | – | – | – | – | – | 2.1 | 0.4 | 0.44 | 0.7 | 3.8 | 3.4 | 1.6 | EC50 (A549 [4]; ATP luminescence, A549, 48 h incubation, read-out: EC50 A549 (48 h)): 3.9 nM; EC50 (U-87 MG; [23]): 0.064 nM; EC50 (SKOV3 [2]; [24]): 0.029 nM; EC50 (NCI-H460; [25]): 0.21 nM; EC50 (BT474; [26]): 0.57 nM; EC50 (SKOV3 [3]; [27]): 1.3 nM |
| CC[C@H](C)[C@H](NC(=O)[C@H]1CCCCN1C)C(=O)N(COC)[C@H](C[C@@H](OC)c1nc(C(=O)N[C@@H](Cc2ccccc2)C(=O)OC)cs1)C(C)C [Compound 29c] | – | – | – | – | – | – | – | – | – | – | – | – | – | 36 | 5.6 | 6.5 | 1.4 | 44 | 66 | 75 | EC50 (U-87 MG; [23]): 0.51 nM; EC50 (SKOV3 [2]; [24]): 1.9 nM; EC50 (LNCaP; ATP luminescence, 72 h incubation, read-out: EC50 LNCaP (72 h)): 255 nM; EC50 (NCI-H460; [25]): 15 nM; EC50 (BT474; [26]): 12 nM; EC50 (SKOV3 [3]; [27]): 17 nM |
| CC[C@H](C)[C@H](NC(=O)[C@H]1CCCCN1C)C(=O)N(C)[C@H](C[C@@H](OC(C)=O)c1nc(C(=O)N[C@@H](Cc2ccc(N)cc2)CC(C)C(=O)O)cs1)C(C)C (some centres unmarked) [Compound 36] | 24 | 60 | 44 | > 100 | > 100 | 78 | 86 | 15 | 32 | > 300 | 52 | > 100 | 45 | – | – | – | – | – | – | – | EC50 (A549 [4]; [28]): 1.9 nM |
| CC[C@H](C)[C@H](NC(=O)[C@H]1CCCCN1C)C(=O)N(COC(=O)CC(C)C)[C@H](C[C@@H](OC(C)=O)c1nc(C(=O)N[C@@H](Cc2ccc(N)cc2)CC(C)C(=O)O)cs1)C(C)C (some centres unmarked) [Compound 54] | 1.2 | 0.64 | 0.24 | 2.1 | 2.2 | 3.1 | 1.5 | 0.11 | 0.34 | 11 | 0.31 | 8.8 | 1.3 | – | – | – | – | – | – | – | EC50 (A549 [4]; [28]): 3 nM |
| COc1cccc2c1C(=O)c1c(O)c3c(c(O)c1C2=O)C[C@@](O)(C(=O)CO)C[C@@H]3O[C@H]1C[C@H](N)[C@H](O)[C@H](C)O1 [Dox, doxorubicin, reference compound] | – | – | – | – | – | – | – | – | – | – | – | – | – | – | – | – | – | – | – | – | EC50 (A549 [4]; Homo sapiens, ATP luminescence, A549, 48 h incubation, read-out: EC50 A549 (48 h)): 149 nM; EC50 (Raji; Homo sapiens, ATP luminescence, 72 h incubation, read-out: EC50 Raji (72 h)): 301 nM; EC50 (A549 [1]; Homo sapiens, A549, 3H thymidine method, 72 h incubation, read-out: EC50, A549): 128 nM; EC50 (OVCAR8; Homo sapiens, OVCAR-8, 3H thymidine method, 72 h incubation, read-out: EC50, OVCAR8): 2040 nM; EC50 (ZR-75; Homo sapiens, ZR75, 3H thymidine method, 72 h incubation, read-out: EC50, ZR-75): 794 nM; EC50 (PC3; Homo sapiens, PC-3, ATP luminescence, PC3, 48 h incubation, read-out: EC50 PC3 (48 h)): 1080 nM; EC50 (Hep3B; Homo sapiens, ATP luminescence, 48 h incubation, read-out: EC50 Hep3B (48 h)): 443 nM; EC50 (U-87 MG; Homo sapiens, U-87 MG, 3H thymidine method, 72 h incubation, read-out: EC50, U-87 MG): 106 nM; EC50 (SKOV3 [2]; Homo sapiens, SK-OV-3, 3H thymidine method, 72 h incubation, read-out: EC50, SKOV3): 163 nM; EC50 (LNCaP; Homo sapiens, ATP luminescence, 72 h incubation, read-out: EC50 LNCaP (72 h)): 592 nM; EC50 (NCI-H460; Homo sapiens, NCI-H460, 3H thymidine method, 72 h incubation, read-out: EC50, NCI-H460): 101 nM; EC50 (BT474; Homo sapiens, BT-474, 3H thymidine method, 72 h incubation, read-out: EC50, BT474): 424 nM; EC50 (SKOV3 [3]; Homo sapiens, SK-OV-3, ATP luminescence, SKOV3, 48 h incubation, read-out: EC50 SKOV3 (48 h)): 674 nM |
